Columns and labels:
Human THP1 cells = assay: ELISA analysis of IL-10 and TNF expression in media from LPS-stimulated THP1 cells (cytokine release platform); format: cell-based; conditions: FIG. 11A-F, compounds at 1 mM, 100 μM and 10 μM for 2 hrs, vs DMSO vehicle
Method: FIG. 10: ELISA analysis of IL-10 and TNF expression in media from cells pretreated with DMSO (vehicle) or (A/B) piperonyl acetate and (C/D) piperonyl isobutyrate for 2 hrs and stimulated with LPS for 24 hrs. Human THP1 cells treated with compounds at (1 mM, 100 μM and 10 μM) and LPS […]. All data are presented as the mean±SEM of three or four independent experiments and were subjected to paired Student's t test.
FIG. 11: ELISA analysis of IL-10 and TNF expression in media from cells pretreated with DMSO (vehicle) or (A/B) vanillin, (C/D) ethyl vanillin and (E/F) divanillin for 2 hrs and stimulated with LPS for 24 hrs. Human THP1 cells treated with compounds at (1 mM, 100 μM and 10 μM) and LPS […]. (G) DH82 cells were treated with veratric acid (1 mM, 500 uM, 250 uM, 125 uM, 60 uM, 30 uM) for 2 hrs and stimulated with LPS for 24 hrs. All data are presented as the mean±SEM of three or four independent experiments and were subjected to paired Student's t test.
THP-1 cells were cultured in RPMI supplemented with 10% (v/v) heat inactivated FBS, penicillin G (100 μg/ml) and streptomycin (100 μg/ml) in a 37° C. humidified chamber under a 5% CO2 atmosphere. Cell morphology and confluence, including media acidification colour change were monitored daily. Twice a week, cells were passaged by removal from flask and centrifugation at 400 G. Cells were cultured for a maximum of 25 passages in order to avoid excessive genetic drift. Cells were seeded at 1×10^6/ml.
Cell supernatant or serum samples were collected and stored at −80° C. prior to analysis. 96-well NUNC “Maxisorb” plates were coated with 100 μl capture antibody diluted to a working concentration in PBS. […] The optical density (OD) value of each well was measured at 450 nm with a correction at 590 nm. A ELx800™ microplate reader with Gen5 Data Analysis Software was used to carry out the reading. The sample concentrations were determined by interpolating the sample absorbance from the known concentrations of the standard curve. Standards were assayed in duplicate while samples were analysed in triplicate. […]

COL2A1 = assay: In vitro arthritis model: DH82 supernatant transferred to canine chondrocytes, COL2A1 mRNA by RT-PCR; format: cell-based; conditions: FIG. 14(A); DH82 macrophage cells treated with 500 μM for 2 hrs and LPS (100 μg/ml) 3 hours; media transferred to canine chondrocytes (CNC) 24 hours; compared to LPS alone
Method: FIG. 13: (1) DH82 cells are plated and stimulated with the compound, followed by LPS. (2) After 24 hours, TNF has been produced by the cells and (3) This liquid supernatant is removed from the cells and reserved. (4) Chondrocytes are plated and (5) the reserved liquid supernatant containing TNF and other inflammatory cytokines from the DH82 cells is added on top of these cells, thus exposing the cartilage cells to an inflammatory environment, simulating an inflammatory joint. (6) After 24 hours gene expression of COL2A1 is measured.
FIG. 14: (A) DH82 cells were stimulated with DMSO (vehicle) or veratraldehyde (500 μM) for 2 hrs and stimulated with LPS (100 μg/ml) for 3 hours. […] COL2A1 mRNA expression was measured by RT-PCR. (B) Quantitative RT-PCR of mRNA expression of COL2A1 in Canine chondrocytes (CNC) pretreated with DMSO (vehicle), Methyl Isoeugenol, NaOH, Vertic Acid, Folic Acid, Piperonyl Alcohol, Veratraldehyde (500 μM) for 24 hrs. […]
Canine chondrocyte (CNC) cells were cultured in complete CNC media in a 37° C. humidified chamber under a 5% CO2 atmosphere. Cell morphology and confluence were monitored daily. […]
Enriched inflammatory cell supernatant from DH82 cells was prepared by first stimulating seeded DH82 cells with compound, followed by stimulation with LPS for 3 hours. […] After 24 hours, mRNA was harvested from CNC as described above and levels of COL2A1 were assessed. […]

DH82 cells = assay: ELISA of media from LPS-stimulated DH82 cells; format: cell-based, canine; conditions: FIG. 11G, 1 mM, 500 uM, 250 uM, 125 uM, 60 uM, 30 uM for 2 hrs, then LPS for 24 hrs
Method: FIG. 3: ELISA analysis of TNF expression in media from cells pretreated with DMSO (vehicle) or Veratraldehyde for 2 hrs and stimulated with LPS for 24 hrs. (A) human THP1 cells treated with Veratraldehyde (200 μM, 100 μM and 50 μM) and LPS (1 mg/ml). (B) human peripheral blood mononuclear cell (PBMC) treated with Veratraldehyde (100 μM) and LPS (100 μg/ml). (C) murine bone-marrow-derived macrophages (BMDMs) isolated from C57BL/6 WT mice treated with Veratraldehyde (100 μM) and LPS (100 μg/ml). (D) Quantitative RT-PCR of mRNA expression of Tnf in PBMCs pretreated with DMSO (vehicle) or veratraldehyde (100 μM) for 2 hrs and stimulated with LPS (100 μg/ml) for 3 hrs. (E and G) TNF was measured from canine macrophage-like cells (DH82) treated with veratraldehyde (1 mM, 500 uM, 200 uM, 100 uM, 50 uM, 10 uM) and LPS for 24 hours by ELISA. (F) Quantitative RT-PCR of mRNA expression of Tnf in DH82 cells pretreated with DMSO (vehicle) or veratraldehyde (500 μM) for 2 hrs and stimulated with LPS (100 μg/ml) for 1.5 and 3 hrs. […] COL2A1 mRNA expression was measured by RT-PCR. […]
DH82 cells were cultured in EMEM supplemented with 10% (v/v) heat inactivated FBS, penicillin G (100 μg/ml) and streptomycin (100 μg/ml) in a 37° C. humidified chamber under a 5% CO2 atmosphere. Cell morphology and confluence were monitored daily. […]

Compound | anti-inflammatory effect (ELISA analysis of IL-10 and TNF expression in media) (Human THP1 cells) | other results
COc1cc(C=O)cc(-c2cc(C=O)cc(OC)c2O)c1O [divanillin] | does not show an anti-inflammatory effect | –
CCOc1cc(C=O)ccc1O [ethyl vanillin] | does not show an anti-inflammatory effect | –
COc1cc(C=O)ccc1O [vanillin] | does not show an anti-inflammatory effect | –
COc1ccc(C=O)cc1OC [veratraldehyde, 3,4-dimethoxybenzaldehyde] | – | levels of COL2A1 (mRNA expression) in chondrocyte cells (COL2A1): significant restoration
COc1ccc(C(=O)O)cc1OC [veratric acid] | – | anti-inflammatory effect (ELISA) (DH82 cells): does not show an anti-inflammatory effect

— US20240398754A1, “VERATRALDEHYDE, PIPERONYL ALCOHOL, ETHYL 2-AMINO BENZOATE, ISOAMYL CINNAMATE, OR DIETHYL MALONATE AS FOOD ADDITIVES WITH ANTI-INFLAMMATORY PROPERTIES” (NATIONAL UNIVERSITY OF IRELAND, MAYNOOTH, priority 2021, published 2024)
